For seven compounds, IC50 results are on record in US8334301B2, “5-Membered heterocyclic compound” (Takeda Pharmaceutical Company Limited, priority 2007, dated 2012).

This assay concerns the target T1, H+,K+-ATPase (Sus scrofa, UniProt P19156).
T1 construct: a microsomal fraction of gastric mucosa was prepared from the stomach of swine; from tissue; host or cells: swine stomach, gastric mucosa microsomal fraction
Description: Proton Potassium-Adenosine Triphosphatase (H+,K+-ATPase) inhibitory activity test. In kind it is biochemical. The conditions noted are these: microsomal fraction of swine gastric mucosa; pH 6.5, 37° C., 10 mmol/L potassium chloride; malachite green colorimetry at 610 nm. The method, then:
Proton Potassium-Adenosine Triphosphatase (H^+,K^+-ATPase) Inhibitory Activity Test
According to the method of Wallmark et al. [Biochim. Biophys. Acta, 728, 31 (1983)], a microsomal fraction of gastric mucosa was prepared from the stomach of swine. First, the stomach was removed, washed with tap water, and immersed in 3 mol/L sodium chloride, and the surface of the mucosa was wiped with a paper towel. The gastric mucosa was removed, minced, and homogenized in a 0.25 mol/L sucrose solution (pH 6.8) containing 1 mmol/L EDTA and 10 mmol/L tris-hydrochloric acid using polytron (Kinematica). The obtained homogenate was centrifuged at 20,000×g for 30 min and the supernatant was centrifuged at 100,000×g for 90 min. The precipitate was suspended in 0.25 mol/L sucrose solution, the suspension was superimposed on a 0.25 mol/L sucrose solution containing 7.5% Ficoll, and centrifuged at 100,000×g for 5 hr. The fraction containing the interface between the both layers was recovered, and centrifugally washed with 0.25 mol/L sucrose solution.
The obtained microsomal fraction was used as an H^+/K^+-ATPase preparation.
To 50 mmol/L HEPES-tris buffer (5 mmol/L magnesium chloride, 10 mmol/L potassium chloride, 10 μmol/L valinomycin, pH=6.5, 40 μL) containing 2.5 μg/mL enzyme preparation based on the protein concentration was added a test compound (5 μL) dissolved in 10% dimethyl sulfoxide solution, and the mixture was incubated at 37° C. for 30 min. A 2 mmol/L adenosine triphosphate tris salt solution (50 mmol/L HEPES-tris buffer (5 mmol/L magnesium chloride, pH 6.5), 5 μL) was added to start an enzyme reaction. The enzyme reaction was performed at 37° C. for 20 min, and then a malachite green solution (a mixture of 0.12% malachite green sulfate (2.5 mol/L) solution, 7.5% ammonium molybdate and 11% Tween 20 at a ratio of 100:25:2, 15 μL) was added to stop the reaction. The reaction mixture was stood at room temperature for 15 min, and the resulting reaction product of inorganic phosphorus and malachite green was measured by colorimetric quantification at a wavelength of 610 nm. In addition, the amount of inorganic phosphoric acid in a reaction solution free of potassium chloride was also measured in the same manner, and the value was extracted from that in the presence of potassium chloride, whereby the H^+,K^+-ATPase activity was measured. The inhibitory rate (%) was determined from the activity value of the control and that at each concentration of the test compound, and 50% inhibitory concentration (IC50) to H^+,K^+-ATPase was determined.

Where a name gives a salt, the structure may show the parent alone.

T1 sequence (P19156 2-1034 limits assumed): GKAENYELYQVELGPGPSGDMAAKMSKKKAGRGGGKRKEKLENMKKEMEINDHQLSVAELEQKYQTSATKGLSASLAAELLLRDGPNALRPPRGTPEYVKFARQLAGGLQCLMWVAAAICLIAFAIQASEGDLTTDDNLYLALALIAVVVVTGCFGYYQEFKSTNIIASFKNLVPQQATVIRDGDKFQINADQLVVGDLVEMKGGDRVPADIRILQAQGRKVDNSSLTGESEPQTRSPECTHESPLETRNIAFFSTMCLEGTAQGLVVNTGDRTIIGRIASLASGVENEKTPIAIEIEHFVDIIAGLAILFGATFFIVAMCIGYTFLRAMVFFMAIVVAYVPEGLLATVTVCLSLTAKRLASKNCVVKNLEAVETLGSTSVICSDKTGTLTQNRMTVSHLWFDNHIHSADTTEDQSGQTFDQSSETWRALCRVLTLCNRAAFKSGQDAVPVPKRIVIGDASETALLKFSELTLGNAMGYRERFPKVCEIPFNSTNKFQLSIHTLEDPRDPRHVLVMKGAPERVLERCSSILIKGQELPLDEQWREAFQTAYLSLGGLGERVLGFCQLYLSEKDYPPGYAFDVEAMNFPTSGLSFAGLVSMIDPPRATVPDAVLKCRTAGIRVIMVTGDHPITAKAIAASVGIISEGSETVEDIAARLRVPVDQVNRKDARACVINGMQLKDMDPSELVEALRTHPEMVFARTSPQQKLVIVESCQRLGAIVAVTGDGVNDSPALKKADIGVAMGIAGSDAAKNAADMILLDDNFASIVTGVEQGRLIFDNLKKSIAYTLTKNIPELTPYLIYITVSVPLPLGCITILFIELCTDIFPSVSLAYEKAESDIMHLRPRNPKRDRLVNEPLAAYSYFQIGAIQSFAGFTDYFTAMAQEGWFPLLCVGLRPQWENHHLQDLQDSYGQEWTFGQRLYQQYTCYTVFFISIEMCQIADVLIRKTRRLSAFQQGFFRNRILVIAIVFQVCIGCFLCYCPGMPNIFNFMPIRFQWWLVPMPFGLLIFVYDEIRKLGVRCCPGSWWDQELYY
T1 sequence (P18434 whole entry partner): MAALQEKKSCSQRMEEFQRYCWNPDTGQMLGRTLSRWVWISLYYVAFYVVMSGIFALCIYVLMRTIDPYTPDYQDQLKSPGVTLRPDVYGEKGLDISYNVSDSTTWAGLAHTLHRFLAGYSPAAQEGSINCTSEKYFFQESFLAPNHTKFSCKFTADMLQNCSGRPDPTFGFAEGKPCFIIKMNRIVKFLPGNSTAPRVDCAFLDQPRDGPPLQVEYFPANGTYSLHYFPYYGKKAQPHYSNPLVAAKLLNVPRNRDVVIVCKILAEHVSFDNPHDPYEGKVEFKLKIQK

As for `CNCc1cn(Cc2ccc(F)cc2)c(-c2ccccc2)n1` [Example 3, 1-[1-(4-fluorobenzyl)-2-phenyl-1H-imidazol-4-yl]-N-methylmethanamine dihydrochloride], the IC50 (as a rule, the midpoint of a concentration-inhibition curve) came to 309000 nM.

Compound `CNCc1cc(-c2cccnc2F)c(Sc2nccs2)s1` [Example 18, 1-{4-(2-fluoropyridin-3-yl)-5-[(1,3-thiazol-2-yl)thio]thiophen-2-yl}-N-methylmethanamine fumarate] came in with an IC50 of 2200 nM.

On to `CNCc1cc(Sc2ccc(Cl)nc2)n(-c2ccccc2Cl)n1` [Example 27, 1-{1-(2-chlorophenyl)-5-[(6-chloropyridin-3-yl)thio]-1H-pyrazol-3-yl}-N-methylmethanamine hydrochloride], for which 31 nM corresponded to half-maximal inhibition (IC50).

In turn, `CNCc1cc(-c2ccccc2F)c([S+]([O-])c2cccc(OC)c2)s1` (stereo not shown) [Example 11, 1-{4-(2-fluorophenyl)-5-[(3-methoxyphenyl)sulfinyl]-2-thienyl}-N-methylmethanamine fumarate] yielded an IC50 of 400 nM.

For the compound `CNCc1cc(-c2ccccc2F)c(Sc2cccc(OC)c2)s1` [Example 10, 1-{4-(2-fluorophenyl)-5-[(3-methoxyphenyl)thio]-2-thienyl}-N-methylmethanamine fumarate], the IC50 amounted to 170 nM.

Compound `CNCc1cc(-c2cccnc2F)c(Sc2ccoc2C)s1` [Example 19, 1-{4-(2-fluoropyridin-3-yl)-5-[(2-methylfuran-3-yl)thio]thiophen-2-yl}-N-methylmethanamine hydrochloride] gave an IC50 of 220 nM.

Consider `CNCc1nc(-c2ccccc2)n(Cc2ccc(F)cc2)c1Cl` [Example 6, 1-[5-chloro-1-(4-fluorobenzyl)-2-phenyl-1H-imidazol-4-yl]-N-methylmethanamine oxalate], for which the IC50 was 1400 nM. Compared with the last compound, the IC50 is about 6.4-fold higher.
